Experiments:
[1] = test system: MDA-MB-231; test: Antiproliferative activity against human MDA-MB-231 cells at 10 uM after 48 hrs by MTT assay relative to control; format: functional; details: MDA-MB-231, 48 h
[2] = molecular target: T1, DNA ligase 1 (Homo sapiens, UniProt P18858); test: Inhibition of human DNA ligase 1 at 25 uM using nicked DNA as substrate after 30 mins relative to control
[3] = molecular target: T1, DNA ligase 1; test: Inhibition of human DNA ligase 1 using 52-mer DNA/25-mer DNA/27-mer DNA as substrate by fluorescence assay
[4] = molecular target: T1, DNA ligase 1; test: Inhibition of human DNA ligase 1 expressed in Escherichia coli BL21 (DE3) cells using nicked DNA as substrate preincubated for 30 mins followed by substrate addition measured after 1 hr
[5] = molecular target: T1, DNA ligase 1; test: Inhibition of human DNA ligase 1 expressed in Escherichia coli BL21DE3RP cells at 50 uM using 52-mer DNA/25-mer DNA/27-mer DNA as substrate after 30 mins by Cyanin3 dye-based fluorescence assay relative to control
[6] = test system: DLD-1; test: Antiproliferative activity against human DLD1 cells after 48 hrs by MTT assay; format: functional, cell-based; details: DLD-1, 48 h
[7] = test system: HT-29; test: Antiproliferative activity against human HT-29 cells after 48 hrs by MTT assay; format: functional, cell-based; details: HT-29, 48 h
[8] = test system: HepG2; test: Antiproliferative activity against human HepG2 cells after 48 hrs by MTT assay; format: functional, cell-based; details: HepG2, 48 h
[9] = test system: MDA-MB-231; test: Antiproliferative activity against human MDA-MB-231 cells after 48 hrs by MTT assay; format: functional, cell-based; details: MDA-MB-231, 48 h
[10] = test system: 4T1; test: Antiproliferative activity against mouse 4T1 cells after 48 hrs by MTT assay; format: functional, cell-based; details: 4T1, 48 h
[11] = test system: HCT-116; test: Antiproliferative activity against human HCT116 cells after 48 hrs by MTT assay; format: functional, cell-based; details: HCT-116, 48 h
[12] = test system: HeLa; test: Antiproliferative activity against human HeLa cells after 48 hrs by MTT assay; format: functional, cell-based
[13] = molecular target: T1, DNA ligase 1; test: Inhibition of human DNA ligase 1 at 50 uM using 52-mer DNA/25-mer DNA/27-mer DNA as substrate by fluorescence assay relative to control
[14] = test system: HCT-116; test: Antiproliferative activity against human HCT116 cells relative to control; format: functional

T1 sequence (P18858 whole entry): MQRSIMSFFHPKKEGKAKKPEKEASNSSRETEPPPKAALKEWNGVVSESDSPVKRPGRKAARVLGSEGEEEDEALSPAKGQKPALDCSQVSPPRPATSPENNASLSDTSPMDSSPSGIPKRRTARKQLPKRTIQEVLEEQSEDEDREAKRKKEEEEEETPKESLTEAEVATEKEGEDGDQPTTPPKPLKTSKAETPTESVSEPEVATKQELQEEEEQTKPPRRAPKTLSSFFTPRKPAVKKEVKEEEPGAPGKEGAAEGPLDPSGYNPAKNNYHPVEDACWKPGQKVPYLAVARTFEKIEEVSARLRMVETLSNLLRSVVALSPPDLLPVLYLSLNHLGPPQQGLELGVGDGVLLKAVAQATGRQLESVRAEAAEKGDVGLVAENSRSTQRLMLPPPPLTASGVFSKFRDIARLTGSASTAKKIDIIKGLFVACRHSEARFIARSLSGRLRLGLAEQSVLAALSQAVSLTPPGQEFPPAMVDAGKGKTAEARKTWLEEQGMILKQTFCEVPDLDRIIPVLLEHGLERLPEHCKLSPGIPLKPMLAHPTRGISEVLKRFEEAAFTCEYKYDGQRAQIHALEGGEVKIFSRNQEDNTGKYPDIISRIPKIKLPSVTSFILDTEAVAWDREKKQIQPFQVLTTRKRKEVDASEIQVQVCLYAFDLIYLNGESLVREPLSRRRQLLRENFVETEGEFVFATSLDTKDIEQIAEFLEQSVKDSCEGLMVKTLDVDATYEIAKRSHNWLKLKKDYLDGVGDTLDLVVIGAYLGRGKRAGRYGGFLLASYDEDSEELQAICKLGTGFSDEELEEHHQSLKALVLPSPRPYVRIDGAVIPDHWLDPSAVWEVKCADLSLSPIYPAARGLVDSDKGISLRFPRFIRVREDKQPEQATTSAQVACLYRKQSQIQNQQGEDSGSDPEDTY

SMILES: COc1cccc(OC)c1/C=C/c1cc(=O)oc2c1ccc1ccccc12
- inhibition at 10 µM [1]: > 50%
- inhibition [2]: < 50%

SMILES: C=C1C(=O)OC(CCCCCCCCCCCCC)C1C(=O)O (stereo not drawn) [(+/-)-Protolichesterinic acid]
- IC50 [3]: 18.5 µM

SMILES: O=C1/C(=N\Nc2cn[nH]c(=O)c2Cl)c2ccccc2N1c1ccc(Cl)cc1
- IC50 [4]: 26.5 µM

SMILES: O=C1/C(=C/c2ccc(F)cc2)CN(C(=S)NC(=O)c2ccccc2)C/C1=C\c1ccc(F)cc1
- inhibition [5]: > 75%
- IC50 [6]: < 10 µM
- IC50 [7]: < 10 µM
- IC50 [8]: < 10 µM
- IC50 [9]: < 10 µM
- IC50 [10]: < 10 µM
- IC50 [11]: < 10 µM
- IC50 [12]: < 10 µM

SMILES: O=C1Nc2ccc(Cl)cc2/C1=N/Nc1cn[nH]c(=O)c1Cl
- IC50 [4]: 14.1 µM

SMILES: CCCCNC(=S)N1C/C(=C\c2ccc(C)cc2)C(=O)/C(=C/c2ccc(C)cc2)C1
- inhibition [5]: > 75%
- IC50 [6]: < 10 µM
- IC50 [7]: < 10 µM
- IC50 [8]: < 10 µM
- IC50 [9]: < 10 µM
- IC50 [10]: < 10 µM
- IC50 [11]: < 10 µM
- IC50 [12]: < 10 µM

SMILES: COc1cc(/C=C/c2cc(=O)oc3c2ccc2c(OC)cccc23)cc(OC)c1
- inhibition at 10 µM [1]: > 50%
- inhibition [2]: < 50%

SMILES: O=C1/C(=N\Nc2cn[nH]c(=O)c2Cl)c2cc(Br)ccc2N1c1ccc(Cl)cc1
- IC50 [4]: 15.5 to 18.8 µM

SMILES: C[C@H]1[C@H](C)CC[C@]2(C(=O)O)CC[C@]3(C)C(=CC[C@@H]4[C@@]5(C)CC[C@H](O)C(C)(C)[C@@H]5CC[C@]43C)[C@H]12 [URSOLIC ACID]
- IC50 [3]: 263 µM

SMILES: CCCCNC(=S)N1C/C(=C\c2ccccc2F)C(=O)/C(=C/c2ccccc2F)C1
- inhibition [5]: > 75%
- IC50 [6]: < 10 µM
- IC50 [7]: < 10 µM
- IC50 [8]: < 10 µM
- IC50 [9]: < 10 µM
- IC50 [10]: < 10 µM
- IC50 [11]: < 10 µM
- IC50 [12]: < 10 µM

SMILES: O=C1NC(=O)/C(=C/c2ccc(OCCCCCOc3cccc(C(=O)/C=C/c4ccc5c(c4)OCO5)c3)cc2)S1
- inhibition [13]: 99.6%

SMILES: O=c1c(O)c(-c2cc(O)c(O)c(O)c2)oc2cc(O)cc(O)c12 [MYRICETIN]
- IC50 [3]: 88 µM

SMILES: O=c1c(O)c(-c2ccc(O)cc2O)oc2cc(O)cc(O)c12 [MORIN]
- IC50 [3]: 225 µM

SMILES: C[n+]1cc2c3c(ccc2c2ccc4cc5c(cc4c21)OCO5)OCO3 [SANGUINARINE NITRATE]
- IC50 [3]: 322 µM

SMILES: COc1ccc(-c2cnc3c(O)nc(O)nc3n2)cc1
- Activity [14]: 70%

SMILES: COC(=O)N1CCN(CC(=O)Nc2cc(C)nc3ccc(NC(=O)Nc4ccc(Br)cc4)cc23)CC1
- inhibition [13]: 10.8%

SMILES: CC1(C)CC[C@]2(C(=O)O)CC=C3[C@]4(C)CC[C@H]5C(C)(C)[C@@H](O)CC[C@]5(C)[C@H]4CC[C@@]3(C)[C@@H]2C1 [ALEURITOLIC ACID]
- IC50 [3]: 208 µM

SMILES: O=C1/C(=N\Nc2cn[nH]c(=O)c2Cl)c2cc(Br)ccc2N1c1ccccc1
- IC50 [4]: 36.4 µM

SMILES: C/C=C/C=C1\C=Cc2c(C(=O)OC)coc(=O)c21 [FULVOPLUMIERIN]
- IC50 [3]: 356 µM

SMILES: COc1cc2c(ccc3c4cc(OC)c(OC)cc4c[n+](C)c23)cc1O [FAGARONINE]
- IC50 [3]: 25.9 µM

SMILES: CC(=O)c1ccc(NC(=O)Nc2ccc3nc(C)cc(NC(=O)c4ccccc4)c3c2)cc1
- inhibition [13]: 76.2%

SMILES: O=C1Nc2ccccc2/C1=N/Nc1cn[nH]c(=O)c1Cl
- IC50 [4]: 13.9 µM

SMILES: CCCCNC(=S)N1C/C(=C\c2ccccc2C)C(=O)/C(=C/c2ccccc2C)C1
- inhibition [5]: > 75%
- IC50 [6]: < 10 µM
- IC50 [7]: < 10 µM
- IC50 [8]: < 10 µM
- IC50 [9]: < 10 µM
- IC50 [10]: < 10 µM
- IC50 [11]: < 10 µM
- IC50 [12]: < 10 µM

SMILES: Cc1ccc(N2C(=O)/C(=N\Nc3cn[nH]c(=O)c3Cl)c3ccccc32)cc1
- IC50 [4]: 14.1 µM

SMILES: COc1cc([N+](=O)[O-])ccc1NC(=S)NCC12C=CC(O1)C1C(=O)N(c3c(Cl)cccc3Cl)C(=O)C12 (stereo unspecified)
- inhibition [13]: 75.9%

SMILES: CC1(C)CC[C@]2(C(=O)O)CC[C@]3(C)C(=CC[C@@H]4[C@@]5(C)CC[C@H](O)C(C)(C)[C@@H]5CC[C@]43C)[C@@H]2C1 [OLEANOLIC_ACID]
- IC50 [3]: 186 µM

SMILES: COc1ccc(N2C(=O)C3C4C=CC(CNC(=S)Nc5ccc(OC)cc5[N+](=O)[O-])(O4)C3C2=O)cc1 (stereo unspecified)
- inhibition [13]: 65%

SMILES: COc1cc2c[n+](C)c3c4cc5c(cc4ccc3c2cc1OC)OCO5 [NITIDINE CHLORIDE]
- IC50 [3]: 65.1 µM

SMILES: O=C1/C(=N\Nc2cn[nH]c(=O)c2Cl)c2cc(Cl)ccc2N1c1ccc(Cl)cc1
- IC50 [4]: 14.1 µM

SMILES: O=C1/C(=C/c2ccc(F)cc2)CN(C(=S)NCCc2ccccc2)C/C1=C\c1ccc(F)cc1
- inhibition [5]: > 75%
- IC50 [6]: < 10 µM
- IC50 [7]: < 10 µM
- IC50 [8]: < 10 µM
- IC50 [9]: < 10 µM
- IC50 [10]: < 10 µM
- IC50 [11]: < 10 µM
- IC50 [12]: < 10 µM

SMILES: COc1cccc(NC(=S)NCC23C=CC(O2)C2C(=O)N(c4ccccc4Cl)C(=O)C23)c1 (stereo unspecified)
- inhibition [13]: 22.4%

SMILES: Cc1ccc(/C=C2\CN(C(=S)NCCc3ccccc3)C/C(=C\c3ccc(C)cc3)C2=O)cc1
- inhibition [5]: > 75%
- IC50 [6]: < 10 µM
- IC50 [7]: < 10 µM
- IC50 [8]: < 10 µM
- IC50 [9]: < 10 µM
- IC50 [10]: < 10 µM
- IC50 [11]: < 10 µM
- IC50 [12]: < 10 µM

SMILES: Cc1ccccc1/C=C1\CN(C(=S)NC(=O)c2ccccc2)C/C(=C\c2ccccc2C)C1=O
- inhibition [5]: > 75%
- IC50 [6]: < 10 µM
- IC50 [7]: < 10 µM
- IC50 [8]: < 10 µM
- IC50 [9]: < 10 µM
- IC50 [10]: < 10 µM
- IC50 [11]: < 10 µM
- IC50 [12]: < 10 µM

SMILES: CC(=O)c1ccc(NC(=O)Nc2ccc3nc(C)cc(NC(=O)c4ccco4)c3c2)cc1
- inhibition [13]: 42.4%

SMILES: O=C1/C(=N\Nc2cn[nH]c(=O)c2Cl)c2cc(Cl)ccc2N1c1ccc(F)cc1
- IC50 [4]: 21.1 µM

SMILES: CCOC(=O)N1CCN(CC(=O)Nc2cc(C)nc3ccc(NC(=O)Nc4ccc(Cl)cc4)cc23)CC1
- inhibition [13]: 1.5%

SMILES: Cc1ccc(/C=C2\CN(C(=S)NC(=O)c3ccccc3)C/C(=C\c3ccc(C)cc3)C2=O)cc1
- inhibition [5]: > 75%
- IC50 [6]: < 10 µM
- IC50 [7]: < 10 µM
- IC50 [8]: < 10 µM
- IC50 [9]: < 10 µM
- IC50 [10]: < 10 µM
- IC50 [11]: < 10 µM
- IC50 [12]: < 10 µM

SMILES: COc1ccc(NC(=S)NCC23C=CC(O2)C2C(=O)N(c4ccccc4)C(=O)C23)c([N+](=O)[O-])c1 (stereo unspecified)
- inhibition [13]: 56.2%

From ChEMBL document CHEMBL4334494, “Recent advances in the targeting of human DNA ligase I as a potential new strategy for cancer treatment” (Eur J Med Chem, 2019)
